Laboratory results as given in PMC6680932, “Structure–Antioxidant–Antiproliferative Activity Relationships of Natural C7 and C7–C8 Hydroxylated Flavones and Flavanones” (Antioxidants, 2019).

Tests used:
[1] = test system: MCF 10A (breast cells); assay: Antiproliferative activity in vitro, SRB assay; format: cell-based, human; settings: Homo sapiens, MCF-10A; 72 h exposure, SRB; normal cell line; read-out: IC50 ± SD MCF 10A
[2] = test system: MCF7 (breast carcinoma); assay: Antiproliferative activity in vitro, SRB assay; format: cell-based, human; settings: Homo sapiens, MCF7; 72 h exposure, SRB; read-out: IC50 ± SD MCF7
[3] = test system: DU 145 (prostate cancer); assay: Antiproliferative activity in vitro, SRB assay; format: cell-based, human; settings: Homo sapiens, DU-145; 72 h exposure, SRB; read-out: IC50 ± SD DU 145
[4] = test system: HLMEC cultures; assay: Stability of flavonoids in the cell cultures, HPLC; format: in vitro ADME, human; settings: 100 μg/mL, 3 h of incubation
Method: (§1) Flavonoids dissolved (as described in Section 2.4) were added to the HLMEC and MCF7 line cultures, and the final concentration was 100 μg/mL. The cultures were incubated in 96-well plates for 3 h and transferred to microtubes containing 400 µL of cold methanol (−20 °C) and kept at −20 °C for 1 h. After centrifugation at 12,000× g for 10 min, samples were analyzed by HPLC. To determine the stability of flavonoids in HLMEC and MCF7 culture media (not containing cells) under analogous conditions, control experiments were also carried out.

[5] = test system: MCF7 cultures; assay: Stability of flavonoids in the cell cultures, HPLC; format: in vitro ADME, human; settings: 100 μg/mL, 3 h of incubation
Method: as §1

[6] = Stability of flavonoids in culture media without cells (control), HPLC; format: physicochemical; settings: HLMEC and MCF7 culture media not containing cells, 3 h
Method: as §1

IC50 [2] [µM] | IC50 [3] [µM] | compound remaining after incubation in HLMEC cultures [4] | compound remaining after incubation in MCF7 cultures [5] | compound remaining in culture media without cells [6] | Structure (SMILES) | IC50 [1] [µM]
22.5 ± 1.29 | 28.9 ± 8.4 | over 98% | over 98% | over 98% | O=c1cc(-c2ccc(O)cc2)oc2cc(O)cc(O)c12 [Compound 2, apigenin] | 35.7 ± 11.9
215 ± 32.3 | 242 ± 15.6 | over 98% | over 98% | over 98% | O=C1C[C@@H](c2ccc(O)cc2)Oc2cc(O)cc(O)c21 [Compound 6, naringenin] | 185 ± 23.2
